Assay results: patent US20080064689A1, “3-[4-(6-Pyridin-3-Yl)-3-Phenyl] -5-(1H-1,2,3-Triazol-1-Ylmethyl)-1,3-Oxazolidin-2-Ones as Antibacterial Agents” (AstraZeneca AB, priority 2004, published 2008)
Where a name gives a salt, the structure may show the parent alone.

Compound | melting point
C[C@H](N)C(=O)NC[C@@H]1CC(c2ccc(-c3ccc(N4C[C@H](Cn5ccnn5)OC4=O)cc3F)cn2)=NO1 (as salt: hydrochloride) [Example 22, N^1-{[(5S)-3-(5-{2-fluoro-4-[(5R)-2-oxo-5-(1H-1,2,3-triazol-1-ylmethyl)-1,3-oxazolidin-3-yl]phenyl}pyridin-2-yl)-4,5-dihydroisoxazol-5-yl]methyl}-L-alaninamide hydrochloride] | 242 to 244 °C
O=C1O[C@@H](Cn2ccnn2)CN1c1ccc(-c2ccc(C3=NO[C@H](CN4CC[S+]([O-])CC4)C3)nc2)c(F)c1 [Example 8, (5R)-3-[3-Fluoro-4-(6-{(5S)-5-[(1-oxidothiomorpholin-4-yl)methyl]-4,5-dihydroisoxazol-3-yl}pyridin-3-yl)phenyl]-5-(1H-1,2,3-triazol-1-ylmethyl)-1,3-oxazolidin-2-one] | 218 to 220 °C
CN(CC(=O)OC(C)(C)C)C[C@@H]1CC(c2ccc(-c3ccc(N4C[C@H](Cn5ccnn5)OC4=O)cc3F)cn2)=NO1 [Example 18, tert-Butyl N-{[(5S)-3-(5-{2-fluoro-4-[(5R)-2-oxo-5-(1H-1,2,3-triazol-1-ylmethyl)-1,3-oxazolidin-3-yl]phenyl}pyridin-2-yl)-4,5-dihydroisoxazol-5-yl]methyl}-N-methylglycinate] | 180 °C
N[C@@H](CC(=O)O)C(=O)NC[C@@H]1CC(c2ccc(-c3ccc(N4C[C@H](Cn5ccnn5)OC4=O)cc3F)cn2)=NO1 [Example 28, N^1-{[(5S)-3-(5-{2-Fluoro-4-[(5R)-2-oxo-5-(1H-1,2,3-triazol-1-ylmethyl)-1,3-oxazolidin-3-yl]phenyl}pyridin-2-yl)-4,5-dihydroisoxazol-5-yl]methyl}-L-α-asparagine] | 224 to 226 °C
CC(C)(C)OC(=O)NC[C@@H]1CC(c2ccc(-c3ccc(N4C[C@H](Cn5ccnn5)OC4=O)cc3F)cn2)=NO1 [Example 15, tert-Butyl {[(5S)-3-(5-{2-fluoro-4-[(5R)-2-oxo-5-(1H-1,2,3-triazol-1-ylmethyl)-1,3-oxazolidin-3-yl]phenyl}pyridin-2-yl)-4,5-dihydroisoxazol-5-yl]methyl}carbamate] | 228 to 230 °C
CN(C)CC(=O)NC[C@@H]1CC(c2ccc(-c3ccc(N4C[C@H](Cn5ccnn5)OC4=O)cc3F)cn2)=NO1 (as salt: hydrochloride) [Example 17, N^1-{[(5S)-3-(5-{2-Fluoro-4-[(5R)-2-oxo-5-(1H-1,2,3-triazol-1-ylmethyl)-1,3-oxazolidin-3-yl]phenyl}pyridin-2-yl)-4,5-dihydroisoxazol-5-yl]methyl}-N^2,N^2-dimethylglycinamide hydrochloride] | 202 to 204 °C
CN1CCN(C[C@@H]2CC(c3ccc(-c4ccc(N5C[C@H](Cn6ccnn6)OC5=O)cc4F)cn3)=NO2)CC1 [Example 4, (5R)-3-[3-Fluoro-4-(6-{(5S)-5-[(4-methylpiperazin-1-yl)methyl]-4,5-dihydroisoxazol-3-yl}pyridin-3-yl)phenyl]-5-(1H-1,2,3-triazol-1-ylmethyl)-1,3-oxazolidin-2-one] | 218 °C
CC(C)[C@@H](N)C(=O)NC[C@@H]1CC(c2ccc(-c3ccc(N4C[C@H](Cn5ccnn5)OC4=O)cc3F)cn2)=NO1 (as salt: hydrochloride) [Example 21, N^1-{[(5S)-3-(5-{2-Fluoro-4-[(5R)-2-oxo-5-(1H-1,2,3-triazol-1-ylmethyl)-1,3-oxazolidin-3-yl]phenyl}pyridin-2-yl)-4,5-dihydroisoxazol-5-yl]methyl}-D-valinamide hydrochloride] | 130 to 134 °C
Br.O=C1O[C@@H](Cn2ccnn2)CN1c1ccc(-c2ccc(C3=NO[C@H](CN4CCOCC4)C3)nc2)c(F)c1 [Example 3b] | > 280 °C (dec.)
CNC[C@@H]1CC(c2ccc(-c3ccc(N4C[C@H](Cn5ccnn5)OC4=O)cc3F)cn2)=NO1 [Example 2] | 215 °C
O=C1O[C@@H](Cn2ccnn2)CN1c1ccc(-c2ccc(C3=NO[C@H](CN4CC=CCC4)C3)nc2)c(F)c1 (as salt: hydrochloride) [Example 14, (5R)-3-(4-{6-[(5S)-5-(3,6-Dihydropyridin-1(2H)-ylmethyl)-4,5-dihydroisoxazol-3-yl]pyridin-3-yl}-3-fluorophenyl)-5-(1H-1,2,3-triazol-1-ylmethyl)-1,3-oxazolidin-2-one] | 250 to 255 °C
CN(CC(=O)O)CC(=O)NC[C@@H]1CC(c2ccc(-c3ccc(N4C[C@H](Cn5ccnn5)OC4=O)cc3F)cn2)=NO1 [Example 27, N-[2-({[(5S)-3-(5-{2-Fluoro-4-[(5R)-2-oxo-5-(1H-1,2,3-triazol-1-ylmethyl)-1,3-oxazolidin-3-yl]phenyl}pyridin-2-yl)-4,5-dihydroisoxazol-5-yl]methyl}amino)-2-oxoethyl]-N-methylglycine] | 185 to 188 °C
O=C1O[C@@H](Cn2ccnn2)CN1c1ccc(-c2ccc(C3=NO[C@H](CN4CCOCC4)C3)nc2)c(F)c1 (as salt: sulfonic acid salt) [Example 3c, (5R)-3-(3-Fluoro-4-{6-[(5S)-5-(morpholin-4-ylmethyl)-4,5-dihydroisoxazol-3-yl]pyridin-3-yl}phenyl)-5-(1H-1,2,3-triazol-1-ylmethyl)-1,3-oxazolidin-2-one, methanesulfonic acid salt] | 165 to 168 °C
Cl.O=C1O[C@@H](Cn2ccnn2)CN1c1ccc(-c2ccc(C3=NO[C@H](CN4CCOCC4)C3)nc2)c(F)c1 | 242 °C
O=C1O[C@@H](Cn2ccnn2)CN1c1ccc(-c2ccc(C3=NO[C@H](CNCCO)C3)nc2)c(F)c1 [Example 5, (5R)-3-{3-Fluoro-4-[6-((5S)-5-{[(2-hydroxyethyl)amino]methyl}-4,5-dihydroisoxazol-3-yl)pyridin-3-yl]phenyl}-5-(1H-1,2,3-triazol-1-ylmethyl)-1,3-oxazolidin-2-one] | 190 °C
O=C1O[C@@H](Cn2ccnn2)CN1c1ccc(-c2ccc(C3=NO[C@H](CN4CCCCC4)C3)nc2)c(F)c1 (as salt: hydrochloride) [Example 13, (5R)-3-(3-Fluoro-4-{6-[(5S)-5-(piperidin-1-ylmethyl)-4,5-dihydroisoxazol-3-yl]pyridin-3-yl}phenyl)-5-(1H-1,2,3-triazol-1-ylmethyl)-1,3-oxazolidin-2-one] | 211 to 215 °C
O=C1O[C@@H](Cn2ccnn2)CN1c1ccc(-c2ccc(C3=NO[C@H](CN4CCS(=O)(=O)CC4)C3)nc2)c(F)c1 [Example 9, (5R)-3-[4-(6-{(5S)-5-[(1,1-Dioxidothiomorpholin-4-yl)methyl]-4,5-dihydroisoxazol-3-yl}pyridin-3-yl)-3-fluorophenyl]-5-(1H-1,2,3-triazol-1-ylmethyl)-1,3-oxazolidin-2-one] | 200 to 203 °C
CN(CC(=O)O)CC(=O)N(C)C[C@@H]1CC(c2ccc(-c3ccc(N4C[C@H](Cn5ccnn5)OC4=O)cc3F)cn2)=NO1 [Example 24, N-{2-[{[(5S)-3-(5-{2-Fluoro-4-[(5R)-2-oxo-5-(1H-1,2,3-triazol-1-ylmethyl)-1,3-oxazolidin-3-yl]phenyl}pyridin-2-yl)-4,5-dihydroisoxazol-5-yl]methyl}(methyl)amino]-2-oxoethyl}-N-methylglycine] | 135 to 145 °C
Cl.O=C1O[C@@H](Cn2ccnn2)CN1c1ccc(-c2ccc(C3=NO[C@@H](CN4CCOCC4)C3)nc2)c(F)c1 | 239 to 245 °C
N[C@@H](CCC(=O)O)C(=O)NC[C@@H]1CC(c2ccc(-c3ccc(N4C[C@H](Cn5ccnn5)OC4=O)cc3F)cn2)=NO1 (racemic) [Example 29, N^1-{[(5S)-3-(5-{2-Fluoro-4-[(SR)-2-oxo-5-(1H-1,2,3-triazol-1-ylmethyl)-1,3-oxazolidin-3-yl]phenyl}pyridin-2-yl)-4,5-dihydroisoxazol-5-yl]methyl}-L-α-glutamine] | 215 to 217 °C
O=C1O[C@@H](Cn2ccnn2)CN1c1ccc(-c2ccc(C3=NO[C@H](Cn4ccnc4)C3)nc2)c(F)c1 [Example 26, (5R)-3-(3-Fluoro-4-{6-[(5S)-5-(1H-imidazol-1-ylmethyl)-4,5-dihydroisoxazol-3-yl]pyridin-3-yl}phenyl)-5-(1H-1,2,3-triazol-1-ylmethyl)-1,3-oxazolidin-2-one] | 239 to 242 °C
CN(C)CC(=O)N(C)C[C@@H]1CC(c2ccc(-c3ccc(N4C[C@H](Cn5ccnn5)OC4=O)cc3F)cn2)=NO1 (as salt: hydrochloride) [Example 23, N^1-{[(5S)-3-(5-{2-fluoro-4-[(5R)-2-oxo-5-(1H-1,2,3-triazol-1-ylmethyl)-1,3-oxazolidin-3-yl]phenyl}pyridin-2-yl)-4,5-dihydroisoxazol-5-yl]methyl}-N^1,N^2,N^2-trimethylglycinamide] | 122 to 132 °C
CN(CC(=O)O)C[C@@H]1CC(c2ccc(-c3ccc(N4C[C@H](Cn5ccnn5)OC4=O)cc3F)cn2)=NO1 [Example 19, N-{[(5S)-3-(5-{2-Fluoro-4-[(5R)-2-oxo-5-(1H-1,2,3-triazol-1-ylmethyl)-1,3-oxazolidin-3-yl]phenyl}pyridin-2-yl)-4,5-dihydroisoxazol-5-yl]methyl}-N-methylglycine] | 212 to 218 °C
O=C1O[C@@H](Cn2ccnn2)CN1c1ccc(-c2ccc(C3=NO[C@@H](CN4CCOCC4)C3)nc2)c(F)c1 [Example 11, (5R)-3-(3-Fluoro-4-{6-[(5R)-5-(morpholin-4-ylmethyl)-4,5-dihydroisoxazol-3-yl]pyridin-3-yl}phenyl)-5-(1H-1,2,3-triazol-1-ylmethyl)-1,3-oxazolidin-2-one] | 239 to 245 °C
O=C1O[C@@H](Cn2ccnn2)CN1c1ccc(-c2ccc(C3=NO[C@H](CN4CCSCC4)C3)nc2)c(F)c1 [Example 7, (5R)-3-(3-Fluoro-4-{6-[(5S)-5-(thiomorpholin-4-ylmethyl)-4,5-dihydroisoxazol-3-yl]pyridin-3-yl}phenyl)-5-(1H-1,2,3-triazol-1-ylmethyl)-1,3-oxazolidin-2-one] | 222 to 225 °C
CCCCNC[C@@H]1CC(c2ccc(-c3ccc(N4C[C@H](Cn5ccnn5)OC4=O)cc3F)cn2)=NO1 [Example 6, (5R)-3-[4-(6-{(5S)-5-[(Butylamino)methyl]-4,5-dihydroisoxazol-3-yl}pyridin-3-yl)-3-fluorophenyl]-5-(1H-1,2,3-triazol-1-ylmethyl)-1,3-oxazolidin-2-one] | 230 °C
